Experimental data reported in patent publication US11926619B2, “Certain pladienolide compounds and methods of use” (EISAI R&D MANAGEMENT CO., LTD., priority 2018, dated 2024).
pIC50: −log10 of the molar value.

Key:
[1] = system: WiDr cells (colon cancer cells; wildtype SF3B1); test: Cell viability assay (CellTiter-Glo, 72 hr), WiDr cells; type: cell-based; details: Homo sapiens; WiDr cells (wildtype SF3B1); read-out: WiDr GI50
Procedure, shortened: (§1)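 Cells at 2000/well were exposed to 9 compound concentrations (0.1% DMSO) in duplicate or triplicate for 72 hr at 37 °C. ATP was read by CellTiter-Glo against a time-zero plate and DMSO control growth. Percent growth/viability was plotted against concentration to give Emax; negative values indicate lethality.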

[2] = system: WiDr-R cells (colon cancer cells; chemically-induced SF3B1 R1074H mutant); test: Cell viability assay (CellTiter-Glo, 72 hr), resistant WiDr-R cells (counter-screen); type: cell-based; details: WiDr-R cells (SF3B1 R1074H mutation, resistant); read-out: WiDr-R GI50
Procedure, shortened: as §1

[3] = target: T1, SF3b complexes (Homo sapiens, UniProt O75533+Q7RTV0); test: Scintillation proximity assay (SPA) with [3H]-labelled pladienolide probe; type: binding; details: wt SF3B1, read-out: SPA (wt SF3B1 cells) IC50
T1 construct: endogenous in cells
Method: Batch immobilization of anti-SF3B1 antibody (MBL) to anti-mouse PVT SPA scintillation beads (PerkinElmer) was prepared as follows: for every 2.5 mg of nuclear extracts, 5 μg anti-SF3B1 antibody and 1.5 mg of beads were mixed in 150 μl PBS. The antibody-bead mixture was incubated for 30 min at RT and centrifuged at 18,000 g for 5 min. 150 μl PBS was used to resuspend every 1.5 mg antibody-bead mixture. The beads were suspended and added to the prepared nuclear extracts. The slurry was incubated for 2 h at 4° C. with gentle mixing. The beads were then collected by centrifuging at 18,000 g for 5 min, and washed twice with PBS+0.1% Triton X-100. After a final centrifugation step, every 1.5 mg of beads was suspended with 150 μl of PBS. The SF3b complexes were tested for [^3H]-labelled pladienolide probe binding ([^3H]-PB), synthesized as previously described (Kotake et al., 2007). 100 μL binding reactions were prepared with 50 μl bead slurry and by adding varying concentrations of PB or PB—OH, and after 30 min pre-incubation, 2.5 nM [^3H]—PB was added. The mixture was incubated for 30 min, and luminescence signals were read using a MicroBeta2 Plate Counter (PerkinElmer). Prism 6 (Graphpad) was used for non-linear regression curve fitting of the data.

[4] = system: Panc 05.04 cells (pancreatic cancer cells; Q699H and K700E mutations in SF3B1); test: Cell viability assay (CellTiter-Glo, 72 hr), Panc 05.04 cells; type: cell-based; details: Panc 05.04 cells (mutant SF3B1); for Emax: maximum achievable response in tested dose range, negative value = cellular lethality, read-out: Panc 05.04 (mt SF3B1 cells) Emax (%); for GI50: read-out: Panc 05.04 (mt SF3B1 cells), GI50
Procedure, shortened: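 Viability was read as ATP content (CellTiter-Glo) after 72 hr compound exposure of Panc 05.04 cells at 37 °C, nine concentrations, 0.1% DMSO. Percentage growth was referenced to time-zero and vehicle wells and plotted against concentration to obtain Emax; negative Emax denotes cell killing.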

SMILES | GI50 [1] | GI50 [2] | pIC50 [3] | Emax [4] | GI50 [4]
C/C(=C\C=C\[C@@H](C)COC(=O)N1CC[C@@H](O)C1)[C@H]1OC(=O)C[C@H](O)CC[C@@](C)(O)[C@@H](OC(=O)N2CCN(C3CCCCCC3)CC2)/C=C/[C@@H]1C | 5.56 nM | > 1000 nM | 8.12 | -84.5% | 5.51 nM
CC(=O)O[C@H]1/C=C/[C@H](C)[C@@H](/C(C)=C/C=C/[C@@H](C)COC(=O)N(C)C)OC(=O)C[C@H](O)CC[C@@]1(C)O | 46.7 nM | > 10000 nM | 7.75 | -91.2% | 74.4 nM
C/C(=C\C=C\[C@@H](C)c1ccccn1)[C@H]1OC(=O)C[C@H](O)CC[C@@](C)(O)[C@@H](OC(=O)N2CCN(C(C)(C)C)CC2)/C=C/[C@@H]1C | 76 nM | > 1000 nM | 7.88 | -78.1% | 66 nM
C/C(=C\C=C\[C@@H](C)COC(=O)N1CC[C@@H](C(=O)O)C1)[C@H]1OC(=O)C[C@H](O)CC[C@@](C)(O)[C@@H](OC(=O)N2CCN(C3CCCCCC3)CC2)/C=C/[C@@H]1C | 692 nM | > 1000 nM | 8.65 | -58.3% | 108 nM
C/C(=C\C=C\[C@@H](C)c1ccccn1)[C@H]1OC(=O)C[C@H](O)CC[C@@](C)(O)[C@@H](OC(=O)N2CCNCC2)/C=C/[C@@H]1C | 16 nM | > 1000 nM | 7.57 | -76.5% | 39.5 nM
C/C(=C\C=C\[C@@H](C)COC(=O)N1CCCC1(C)C)[C@H]1OC(=O)C[C@H](O)CC[C@@](C)(O)[C@@H](OC(=O)N2CCN(C)CC2)/C=C/[C@@H]1C | 9.61 nM | > 1000 nM | 8.43 | -93.7% | 7.82 nM
C/C(=C\C=C\[C@@H](C)c1ccccn1)[C@H]1OC(=O)C[C@H](O)CC[C@@](C)(O)[C@@H](OC(=O)N2C[C@H]3C[C@H]2CN3C)/C=C/[C@@H]1C | 41.5 nM | > 1000 nM | 7.91 | -29.4% | 56.4 nM
C/C(=C\C=C\C(C)c1cccnc1)[C@H]1OC(=O)C[C@H](O)CC[C@@](C)(O)[C@@H](OC(=O)N2CCN(C3CCCCCC3)CC2)/C=C/[C@@H]1C (stereo partly shown) | 19.7 nM | > 1000 nM | 8.60 | -95.4% | 10.4 nM
C/C(=C\C=C\[C@@H](C)c1ccccn1)[C@H]1OC(=O)C[C@H](O)CC[C@H](C)[C@@H](OC(=O)N2CCN(C3CCCCCC3)CC2)/C=C/[C@@H]1C | 33.2 nM | 2430 nM | 7.98 | -96.3% | 44 nM
C/C(=C\C=C\[C@@H](C)c1ccccn1)[C@H]1OC(=O)CCCCC[C@@H](OC(=O)N(C)C)/C=C/[C@@H]1C | 1060 nM | 7760 nM | < 5.92 | 48.2% | 5790 nM
C/C(=C\C=C\[C@@H](C)c1ccccn1)[C@H]1OC(=O)C[C@H](O)CC[C@H](C)[C@@H](OC(=O)N(C)C)/C=C/[C@@H]1C | 479 nM | > 10000 nM | 6.85 | 24% | 1720 nM
CC(=O)O[C@H]1/C=C/[C@H](C)[C@@H](/C(C)=C/C=C/[C@@H](C)COC(=O)N2CCC[C@H]2C)OC(=O)C[C@H](O)CC[C@@]1(C)O | 0.983 nM | > 1000 nM | 8.57 | -79.3% | 2.11 nM
C/C(=C\C=C\[C@@H](C)COC(=O)N1CC[C@@H](O)C1)[C@H]1OC(=O)CCCCC[C@@H](OC(=O)N2CCN(C3CCCCCC3)CC2)/C=C/[C@@H]1C | 45.5 nM | > 1000 nM | 7.40 | -81.6% | 35.2 nM
C/C(=C\C=C\[C@H](C)c1ncccn1)[C@H]1OC(=O)C[C@H](O)CC[C@@](C)(O)[C@@H](OC(=O)N2CCN(C3CCCCCC3)CC2)/C=C/[C@@H]1C | 38.1 nM | > 1000 nM | 8.18 | -93.1% | 34.5 nM
C/C(=C\C=C\[C@@H](C)COC(=O)N1CCCC1)[C@H]1OC(=O)C[C@H](O)CC[C@H](C)[C@@H](OC(=O)N2CCN(C)CC2)/C=C/[C@@H]1C | 3.81 nM | > 1000 nM | 8.53 | -86% | 1.36 nM
C/C(=C\C=C\[C@@H](C)c1ccccn1)[C@H]1OC(=O)C[C@H](O)CC[C@@](C)(O)[C@@H](OC(=O)N2CCCN(C)CC2)/C=C/[C@@H]1C | 33.1 nM | > 1000 nM | 8.16 | -23.1% | 84.9 nM
C/C(=C\C=C\[C@@H](C)COC(=O)N1CCCC1)[C@H]1OC(=O)C[C@H](O)CC[C@](C)(O)[C@@H](OC(=O)N2CCN(C)CC2)/C=C/[C@@H]1C | 7.12 nM | > 1000 nM | 8.24 | -83.7% | 3.14 nM
C/C(=C\C=C\[C@@H](C)COC(=O)N1CC[C@@H](O)C1)[C@H]1OC(=O)CCCCC[C@@H](OC(=O)N2CCN(C)CC2)/C=C/[C@@H]1C | 8.59 nM | 2840 nM | 8.27 | -87% | 6.48 nM
CC(=O)O[C@H]1/C=C/[C@H](C)[C@@H](/C(C)=C/C=C/[C@@H](C)COC(=O)N(C)C(C)C)OC(=O)C[C@H](O)CC[C@@]1(C)O | 32.6 nM | > 10000 nM | 8.31 | -87.4% | 54.6 nM
CC(=O)O[C@H]1/C=C/[C@H](C)[C@@H](/C(C)=C/C=C/[C@@H](C)COC(=O)N2CCN(C)CC2)OC(=O)C[C@H](O)CC[C@@]1(C)O | 106 nM | > 1000 nM | 6.63 | -88.8% | 203 nM
C/C(=C\C=C\[C@@H](C)COC(=O)N1CC[C@@H](N(C)C)C1)[C@H]1OC(=O)C[C@H](O)CC[C@@](C)(O)[C@@H](OC(=O)N2CCN(C3CCCCCC3)CC2)/C=C/[C@@H]1C | 30.2 nM | 3990 nM | 8.01 | -85.4% | 33 nM
C/C(=C\C=C\[C@H](C)COC(=O)N1CCCC1)[C@H]1OC(=O)C[C@H](O)CC[C@@](C)(O)[C@@H](OC(=O)N2CCN(C3CCCCCC3)CC2)/C=C/[C@@H]1C | 11.8 nM | 862 nM | 7.94 | -93.5% | 11.7 nM
C/C(=C\C=C\[C@@H](C)CNC(=O)C1CCCC1)[C@H]1OC(=O)C[C@H](O)CC[C@@](C)(O)[C@@H](OC(=O)N2CCN(C3CCCCCC3)CC2)/C=C/[C@@H]1C | 73 nM | > 1000 nM | 7.95 | -88.4% | 53.3 nM
C/C(=C\C=C\C(C)c1ncccn1)[C@H]1OC(=O)C[C@H](O)CC[C@@](C)(O)[C@@H](OC(=O)N2CCN(C3CCCCCC3)CC2)/C=C/[C@@H]1C (stereo partly shown) | 45.9 nM | > 1000 nM | 7.92 | -91.6% | 31 nM
C/C(=C\C=C\[C@@H](C)COC(=O)N1CCCC1)[C@H]1OC(=O)CCCCC[C@@H](OC(=O)N(C)C)/C=C/[C@@H]1C | 135 nM | 6380 nM | 7.15 | -94.8% | 156 nM
C/C(=C\C=C\C(C)c1cccnn1)[C@H]1OC(=O)C[C@H](O)CC[C@@](C)(O)[C@@H](OC(=O)N2CCN(C)CC2)/C=C/[C@@H]1C (stereo partly shown) | 18.7 nM | > 1000 nM | 8.04 | -90.9% | 59.2 nM
C/C(=C\C=C\[C@@H](C)c1ccccn1)[C@H]1OC(=O)C[C@H](O)CC[C@@](C)(O)[C@@H](O)/C=C/[C@@H]1C | – | – | < 5.92 | 49.5% | 3980 nM
CC[C@H](O)[C@@H](C)[C@H]1O[C@@H]1C[C@H](C)/C=C/C=C(\C)[C@H]1OC(=O)C[C@H](O)CC[C@@](C)(OC(C)=O)[C@@H](OC(=O)N2CCNCC2)/C=C/[C@@H]1C | – | – | 8.67 | -47.1% | 2.05 nM
CCO[C@]1(C)CC[C@@H](O)CC(=O)O[C@H](/C(C)=C/C=C/[C@](C)(O)C[C@H]2O[C@@H]2[C@H](C)[C@@H](O)CC)[C@@H](C)/C=C/[C@@H]1OC(=O)N1CCNCC1 | – | – | 8.03 | -75.4% | 1.76 nM
C/C(=C\C=C\[C@@H](C)c1ccccn1)[C@H]1OC(=O)C[C@H](O)CC[C@@](C)(O)[C@@H](OC(=O)N2CCC(N3CC4CCC(C3)C4(F)F)CC2)/C=C/[C@@H]1C | – | – | 7.32 | -90.3% | 76.1 nM
